Values of other authors in patent US20210324434A1, “METHOD FOR PRODUCING RARE SUGAR-CONTAINING COMPOSITION AND RARE SUGAR-CONTAINING COMPOSITION” (NATIONAL UNIVERSITY CORPORATION KAGAWA UNIVERSITY, priority 2018, published 2021).

What was measured:
[1] = relative to sugar
[2] = already known

Row | Compound | sweetness intensity, % of that of sugar [1] | result of an acute oral toxicity test [2]
1 | O=C(CO)[C@@H](O)[C@H](O)[C@H](O)CO [D-fructose] | about 170% | 
2 | O=C[C@H](O)[C@@H](O)[C@H](O)[C@H](O)CO [D-glucose] | about 70% | 
3 | O=C(CO)[C@H](O)[C@H](O)[C@H](O)CO [D-psicose] | about 70% | ≥ 5,000 mg/kg
